From patent US20220235255A1, “FLUORINE SUBSTITUTED UNSYMMETRICAL ETHERS, AND COMPOSITIONS, METHODS AND USES INCLUDING SAME” (HONEYWELL INTERNATIONAL INC., priority 2021, published 2022) come the findings set out here.

Structures are written as SMILES.

Common to all, as to type: physicochemical
Data set [1] is described as follows: Dielectric constant, ASTM D150-11, room temperature, 20 GHz. The text has this: Dielectric Constant means the dielectric constant as measured in accordance with ASTM D150-11 at room temperature at 20 giga hertz (GHz).
A short description of data set [2]: Flash point / non-flammability, ASTM D3828-16a, NFPA 30. The text has this:
Flash Point refers the lowest temperature at which vapors of the liquid will keep burning after the ignition source is removed as determined in accordance with ASTM D3828-16a.
The flash point of a thermal management composition or fluid refers the lowest temperature at which vapours of the composition will keep burning after the ignition source is removed as determined in accordance with ASTM D3828-16a.

The nature of another data set: Normal boiling point.

With `FC(F)(F)COC(C(F)(F)F)C(F)(F)F` [Compound 1A, propane, 2-(2′,2′,2′-trifluorethoxy)-(1,1,1,3,3,3-hexafluoro)], the dielectric constant result in data set [1] is listed as “below 4”. The flash point result in data set [2] is “no flash point”. Also, the normal boiling point result in “Normal boiling point” was “about 69 °C”.
